Test results published in patent US11883402B2, “Crystalline forms of a quinazoline compound and its hydrochloride salts” (Hanmi Pharmaceutical Co., Ltd., priority 2018, dated 2024).
One block for each compound: values may come before it.

Experiments:
Type in all cases: physicochemical
[1] = Dynamic vapor sorption (DVS) hygroscopicity; details: for Hygroscopic degree (DVS): 25° C.
Protocol: Dynamic Vapor Sorption (DVS) analysis was conducted on the DVS advantage (Surface measurement system, United Kingdom) analyzer at 25° C. and relative humidity of 0-90%.
10 mg of sample was placed in the wire mesh steam sorption balance pan and attached to the DVS-advantage dynamic vapor adsorption balance by the Surface Measurement Systems. […] After the completion of the sorption cycle, the sample was dried using the same procedure, during which the relative humidity was returned to a relative humidity […] all the time. The change in weight during the sorption/desorption cycle (repetition of 3 times) was recorded to determine the hygroscopicity of the sample.

[2] = Behaviour under long-term, accelerated and harsh storage conditions (moisture absorption, stability of form)
[3] = Comparative test of solubility of amorphous form and crystalline polymorphs of the hydrochloride salt (Test Example 1); details: 25° C., loading of 1.0 mg/mL, LOD 0.1 μg/mL, based on compound of formula (1), listed as HCl cryst. hydrate
Protocol: To compare the solubility of amorphous hydrochloride salt form and crystalline hydrochloride salt polymorphs, each of the polymorphs and amorphous form of the hydrochloride salt of the compound of chemical formula (1) prepared in Examples 4 to 6 was used to prepare samples under the following conditions according to non-ionized water and acidity (pH). Thereafter, each solution was analyzed by high performance liquid chromatography (HPLC) according to the measurement conditions of the content of the compound of chemical formula (1) to measure the dissolved amount (LOD: 0.1 μg/mL) based on the compound of chemical formula (1).
Specifically, 5 mg of each polymorph was added to 5 ml of water and mixed using a Voltamixer at 20-25° C. Thereafter, the filtrate obtained by filtrating using GH Polypro membrane Acrodisc, PALL (pore size 0.2 μm) was diluted with a dilution solvent for high performance liquid chromatography (HPLC) at a ratio of 1/100, to obtain the samples.

[4] = Comparative test of stability (HPLC purity on storage) of amorphous form and crystalline polymorphs of the hydrochloride salt (Test Example 2); details: listed as HCl amorphous
Protocol: High performance liquid chromatography (HPLC) was conducted on the Agilent 1100/1200 series HPLC Systems (Agilent, USA) analyzer for the purpose of purity and content analysis including stability test and the like. The analysis conditions of the HPLC are as follows.
To compare the stability of amorphous hydrochloride salt form and crystalline hydrochloride salt polymorphs, each of samples of the polymorphs and amorphous form of the hydrochloride salt of the compound of chemical formula (1) prepared in Examples 4 to 6 was left for 4 weeks under long term conditions (e.g., temperature of 25±2° C. and relative humidity of 60±5%) and accelerated conditions (e.g., temperature of 40° C. and relative humidity of 75%). Each sample was analyzed by high performance liquid chromatography (HPLC) according to the purity measurement conditions of the compound of chemical formula (1).

SMILES: C=CC(=O)N1CCC(Oc2cc3c(Nc4ccc(Cl)c(Cl)c4F)ncnc3cc2OC)CC1 [Example 2, 1-(4-(4-(3,4-dichloro-2-fluorophenylamino)-7-methoxyquinazolin-6-yloxy)piperidin-1-yl)prop-2-en-1-one]
- Hygroscopic degree (DVS) ([1]; relative humidity range of 10%-50%): 0.3-0.5%
- Hygroscopic degree (DVS) ([1]; relative humidity range of 50-90%): about 3%

SMILES: C=CC(=O)N1CCC(Oc2cc3c(Nc4ccc(Cl)c(Cl)c4F)ncnc3cc2OC)CC1 [Example 3, 1-(4-(4-(3,4-dichloro-2-fluorophenylamino)-7-methoxyquinazolin-6-yloxy)piperidin-1-yl)prop-2-en-1-one]
- Stability under storage conditions (in words) ([2]; long-term (25° C., 60% RH), accelerated (40° C., 75% RH) and harsh (60° C.) conditions): sufficiently stable

The next lines start with the values.

- Solubility, Water [3]: <LOD
SMILES: C=CC(=O)N1CCC(Oc2cc3c(Nc4ccc(Cl)c(Cl)c4F)ncnc3cc2OC)CC1 [Example 4, 1-(4-(4-(3,4-dichloro-2-fluorophenylamino)-7-methoxyquinazolin-6-yloxy)piperidin-1-yl)prop-2-en-1-one]

- Moisture absorption on storage (in words) ([2]; long-term (25° C., 60% RH) and accelerated (40° C., 75% RH) conditions): did not absorb moisture
SMILES: C=CC(=O)N1CCC(Oc2cc3c(Nc4ccc(Cl)c(Cl)c4F)ncnc3cc2OC)CC1 [Example 5, 1-(4-(4-(3,4-dichloro-2-fluorophenylamino)-7-methoxyquinazolin-6-yloxy)piperidin-1-yl)prop-2-en-1-one]

- Purity (HPLC, %) 3 days ([4]; 25 ± 2° C., 60 ± 5% RH): 98.0%
- Purity (HPLC, %) Start ([4]; 25 ± 2° C., 60 ± 5% RH): 98.0%
- Purity (HPLC, %) Week 1 ([4]; 25 ± 2° C., 60 ± 5% RH): 98.0%
- Purity (HPLC, %) Week 2 ([4]; 25 ± 2° C., 60 ± 5% RH): 97.9%
- Purity (HPLC, %) Week 4 ([4]; 25 ± 2° C., 60 ± 5% RH): 97.9%
- Purity (HPLC, %) 3 days ([4]; 40 ± 2° C., 75 ± 5% RH): 97.9%
- Purity (HPLC, %) Start ([4]; 40 ± 2° C., 75 ± 5% RH): 98.0%
- Purity (HPLC, %) Week 1 ([4]; 40 ± 2° C., 75 ± 5% RH): 97.9%
- Purity (HPLC, %) Week 2 ([4]; 40 ± 2° C., 75 ± 5% RH): 97.8%
- Purity (HPLC, %) Week 4 ([4]; 40 ± 2° C., 75 ± 5% RH): 97.6%
- Moisture absorption on storage ([2]; 25° C., 60% relative humidity and 40° C., 75% relative humidity): 7-9%
- Hygroscopic degree (DVS), in words ([1]; relative humidity range of 10-90%): very high hygroscopic degree
SMILES: C=CC(=O)N1CCC(Oc2cc3c(Nc4ccc(Cl)c(Cl)c4F)ncnc3cc2OC)CC1 [Example 6, 1-(4-(4-(3,4-dichloro-2-fluorophenylamino)-7-methoxyquinazolin-6-yloxy)piperidin-1-yl)prop-2-en-1-one]
